From patent publication US20220324835A1 (Nurix Therapeutics, Inc., priority 2018, published 2022)
Where two headings read alike, the source gives them in different places.

Columns and labels:
T-cell [1] = experiment: CD25 cell surface staining on T-cells co-stimulated with anti-CD3 and anti-CD28 antibody (Biological Example 2); format: cell-based, human; conditions: Homo sapiens, T-cell, read-out: CD25 staining Anti-CD3/Anti-CD28 stimulation; for fold induction at 0.3 µM: 0.3 μM Cbl-b inhibitor; for fold induction at 1 µM: 1 μM Cbl-b inhibitor; for fold induction at 4 µM: 4 μM Cbl-b inhibitor
Outline: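 Values are fold-change over baseline: readings (IL-2 release, CD25 staining) from inhibitor-treated T-cells divided against untreated cells […]. No detailed procedure stated.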

Cbl-b = Cbl-b (Homo sapiens, UniProt Q13191); experiment: Cbl-b inhibition assay (Cbl-b activity assay, FRET, Biological Example 1; 100 mM NaCl, 60 nM Src kinase); format: biochemical; conditions: upper bound stated in text lists; read-out: IC50 values in the Cbl-b inhibition assay of Biological Example 1
Outline: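 Inhibitor activity is measured as reduced terbium-to-fluorescein FRET between streptavidin-terbium on biotinylated Cbl-b and Bodipy-fluorescein ubiquitin carried by an irreversible UbcH5B-Ub conjugate, binding of which depends on Src phosphorylation of Cbl-b.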

T-cell [2] = experiment: IL-2 secretion from T-cells stimulated with anti-CD3 antibody alone (Biological Example 2); format: cell-based, human; conditions: T-cell, read-out: IL-2 secretion Anti-CD3 stimulation; for fold induction at 1 µM: 1 μM Cbl-b inhibitor; for fold induction at 8 µM: 8 μM Cbl-b inhibitor
[3] = fold change over baseline, primary human total T-cells
[4] = fold change over baseline (anti-CD3/anti-CD28 stimulated T-cells without inhibitor)

Chain of Cbl-b (Q13191 36-427): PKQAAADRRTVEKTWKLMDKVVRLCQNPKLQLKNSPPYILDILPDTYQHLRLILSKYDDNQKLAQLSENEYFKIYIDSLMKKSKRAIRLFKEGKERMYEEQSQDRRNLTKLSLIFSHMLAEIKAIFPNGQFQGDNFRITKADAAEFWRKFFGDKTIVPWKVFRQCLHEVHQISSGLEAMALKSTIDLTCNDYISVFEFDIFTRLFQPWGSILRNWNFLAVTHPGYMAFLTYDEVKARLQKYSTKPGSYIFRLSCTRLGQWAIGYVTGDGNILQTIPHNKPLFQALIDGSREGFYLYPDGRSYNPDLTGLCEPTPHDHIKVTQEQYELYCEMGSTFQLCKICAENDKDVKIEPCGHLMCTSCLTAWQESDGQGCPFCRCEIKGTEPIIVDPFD

Row | SMILES | fold induction at 0.3 µM (T-cell [1]; [3]) | fold induction at 1 µM (T-cell [1]; [3]) | fold induction at 4 µM (T-cell [1]; [3]) | IC50 (Cbl-b) | fold induction at 1 µM (T-cell [2]; [3]) | fold induction at 8 µM (T-cell [2]; [3]) | fold induction at 0.3 µM (T-cell [1]; [4]) | fold induction at 1 µM (T-cell [1]; [4]) | fold induction at 1 µM (T-cell [2]; Homo sapiens, fold change over baseline (anti-CD3/anti-CD28 stimulated T-cells without inhibitor))
1 | CNS(=O)(=O)c1cc(C(=O)Nc2cccc([C@H](C)Cc3nncn3C)c2)nc(C(F)(F)F)c1 [Compound 201, (R)-N-(3-(1-(4-methyl-4H-1,2,4-triazol-3-yl)propan-2-yl)phenyl)-4-(N-methylsulfamoyl)-6-(trifluoromethyl)picolinamide] | 1.01 to 1.3 | 1.01 to 1.3 | 1.01 to 1.3 | ≤ 0.5 µM | 0.151 to 0.2 | > 0.201 | – | – | –
2 | C[C@H](Sc1nncn1C)c1cccc(NC(=O)c2cc(C(=O)N3CC[C@H](O)C3)ccn2)c1 [Compound 140, 4-[[(3S)-3-hydroxypyrrolidin-1-yl]carbonyl]-N-[3-[(1S)-1-[(4-methyl-4H-1,2,4-triazol-3-yl)sulfanyl]ethyl]phenyl]pyridine-2-carboxamide] | 1.01 to 1.3 | 1.01 to 1.3 | 1.01 to 1.3 | ≤ 0.5 µM | < 0.05 | < 0.05 | – | – | –
3 | C[C@H](Sc1nncn1C)c1cccc(NC(=O)c2cc(Cl)cc(C(F)(F)F)n2)c1 [Compound 68, (S)-4-chloro-N-(3-(1-((4-methyl-4H-1,2,4-triazol-3-yl)thio)ethyl)phenyl)-6-(trifluoromethyl)picolinamide] | 1.01 to 1.3 | 1.01 to 1.3 | 1.01 to 1.3 | ≤ 0.5 µM | < 0.05 | 0.051 to 0.1 | – | – | –
4 | C[C@H](Cc1nncn1C)c1cccc(NC(=O)c2cc(O[C@H]3CC[C@@H](O)C3)ccn2)c1 [Compound 206, 4-((1S,3R)-3-hydroxycyclopentyloxy)-N-(3-((R)-1-(4-methyl-4H-1,2,4-triazol-3-yl)propan-2-yl)phenyl)picolinamide] | 1.01 to 1.3 | 1.01 to 1.3 | 1.01 to 1.3 | ≤ 1 µM | < 0.05 | 0.051 to 0.1 | – | – | –
5 | C[C@H](Cc1nncn1C)c1cccc(N2Cc3c(ccnc3C3CC3)C2=O)c1 [Compound 257, 4-cyclopropyl-2-[3-[(1R)-1-methyl-2-(4-methyl-1,2,4-triazol-3-yl)ethyl]phenyl]-3H-pyrrolo[3,4-c]pyridin-1-one] | 1.01 to 1.3 | 1.01 to 1.3 | 1.31 to 1.5 | ≤ 0.5 µM | 0.151 to 0.2 | > 0.201 | – | – | –
6 | Cn1cnnc1C(F)(F)[C@](C)(F)c1cccc(N2Cc3c(cccc3C(F)(F)F)C2=O)c1 [Compound 296a, (R)-2-(3-(1,1,2-trifluoro-1-(4-methyl-4H-1,2,4-triazol-3-yl)propan-2-yl)phenyl)-4-(trifluoromethyl)isoindolin-1-one] | 1.01 to 1.3 | 1.01 to 1.3 | 1.01 to 1.3 | ≤ 0.5 µM | 0.151 to 0.2 | > 0.201 | – | – | –
7 | Cn1cnnc1C[C@](C)(F)c1cccc(N2Cc3c(cccc3C(F)(F)F)C2=O)c1 [Compound 298b, (S)-2-(3-(2-fluoro-1-(4-methyl-4H-1,2,4-triazol-3-yl)propan-2-yl)phenyl)-4-(trifluoromethyl)isoindolin-1-one] | 1.01 to 1.3 | < 1 | 1.01 to 1.3 | ≤ 0.5 µM | 0.051 to 0.1 | 0.101 to 0.15 | – | – | –
8 | C[C@H](Sc1nncn1C)c1cccc(NC(=O)c2cc3c(Cl)cccc3[nH]2)c1 [Compound 78, 4-chloro-A-[3-[(LS)-1-[(4-methyl-1,2,4-triazol-3-yl)sulfanyl]ethyl]phenyl]-1H-indole-2-carboxamide] | < 1 | 1.01 to 1.3 | 1.01 to 1.3 | ≤ 0.5 µM | < 0.05 | > 0.201 | – | – | –
9 | C[C@H](Cc1nncn1C)c1cccc(NC(=O)c2cc(C3(O)COC3)cc(C(F)(F)F)n2)c1 [Compound 190, (R)-4-(3-hydroxyoxetan-3-yl)-N-(3-(1-(4-methyl-4H-1,2,4-triazol-3-yl)propan-2-yl)phenyl)-6-(trifluoromethyl)picolinamide] | > 1.76 | > 1.76 | > 1.76 | ≤ 0.5 µM | < 0.05 | 0.101 to 0.15 | – | – | –
10 | C[C@H](Cc1nncn1C)c1cccc(NC(=O)c2cc(S(N)(=O)=O)cc(C(F)(F)F)n2)c1 [Compound 200, (R)-N-(3-(1-(4-methyl-4H-1,2,4-triazol-3-yl)propan-2-yl)phenyl)-4-sulfamoyl-6-(trifluoromethyl)picolinamide] | 1.01 to 1.3 | 1.01 to 1.3 | 1.01 to 1.3 | ≤ 0.5 µM | < 0.05 | 0.051 to 0.1 | – | – | –
11 | Cc1cccc2nc(C(=O)Nc3cccc([C@H](C)Sc4nncn4C)c3)ccc12 [Compound 48, 5-Methyl-N-[3-[(1S)-1-[(4-methyl-4H-1,2,4-triazol-3-yl)sulfanyl]ethyl]phenyl]quinoline-2-carboxamide] | 1.01 to 1.3 | 1.01 to 1.3 | 1.01 to 1.3 | ≤ 0.5 µM | < 0.05 | 0.101 to 0.15 | – | – | –
12 | C[C@H](Cc1nncn1C)c1cc(-c2cn[nH]c2)nc(N2Cc3c(cccc3C(F)(F)F)C2=O)c1 [Example 684, (R)-2-(4-(1-(4-methyl-4H-1,2,4-triazol-3-yl)propan-2-yl)-6-(1H-pyrazol-4-yl)pyridin-2-yl)-4-(trifluoromethyl)isoindolin-1-one] | – | – | – | ≤ 1 µM | – | – | < 1 | < 1 | 0.051 to 0.1
13 | C[C@H](Cc1nncn1C)c1cccc(NC(=O)c2cc(S(C)(=O)=O)cc(C3CC3)n2)c1 [Compound 198, 6-cyclopropyl-N-[3-[(1R)-1-methyl-2-(4-methyl-1,2,4-triazol-3-yl)ethyl]phenyl]-4-methylsulfonyl-pyridine-2-carboxamide] | 1.01 to 1.3 | 1.01 to 1.3 | < 1 | ≤ 0.5 µM | 0.101 to 0.15 | > 0.201 | – | – | –
14 | C[C@H](Cc1nncn1C)c1cccc(NC(=O)c2cccc(CCO)n2)c1 [Compound 202, 6-(2-hydroxyethyl)-N-[3-[(2R)-1-(4-methyl-4H-1,2,4-triazol-3-yl)propan-2-yl]phenyl]pyridine-2-carboxamide] | 1.01 to 1.3 | 1.01 to 1.3 | 1.31 to 1.5 | ≤ 1 µM | 0.051 to 0.1 | 0.151 to 0.2 | – | – | –
15 | Cc1ccc(C(=O)Nc2cccc([C@H](C)Sc3nncn3C)c2)nc1C [Compound 35, (S)-5,6-Dimethyl-N-(3-(1-((4-methyl-4H-1,2,4-triazol-3-yl)thio)ethyl)phenyl)picolinamide] | < 1 | 1.01 to 1.3 | 1.31 to 1.5 | ≤ 1 µM | < 0.05 | > 0.201 | – | – | –
16 | C[C@H](Sc1nncn1C)c1cc(F)cc(N2Cc3c(cccc3C(F)(F)F)C2=O)c1 [Compound 168a, 2-[3-fluoro-5-[(1S)-1-[(4-methyl-1,2,4-triazol-3-yl)sulfanyl]ethyl]phenyl]-4-(trifluoromethyl)isoindolin-1-one] | 1.01 to 1.3 | 1.01 to 1.3 | 1.01 to 1.3 | ≤ 0.5 µM | < 0.05 | < 0.05 | – | – | –
